In patent US20230250106A1, “COMPOUNDS AND COMPOSITIONS FOR TREATING CONDITIONS ASSOCIATED WITH STING ACTIVITY” (IFM Due, Inc., priority 2020, published 2023):

Test system: STING pathway
Assay: STING reporter assay: luciferase reporter activity in THP1-Dual KO-IFNAR2 cells activated with 2'3'cGAMP
Format: cell-based
Conditions: Homo sapiens, 2'3'cGAMP 15 μM, 24 h, read-out: hSTING EC50
Procedure: STING pathway activation by the compounds described herein was measured using THP1-Dual™ cells (KO-IFNAR2).
THP1-Dual™ KO-IFNAR2 Cells (obtained from invivogen) were maintained in RPMI, 10% FCS, 5 ml P/S, 2 mM L-glut, 10 mM Hepes, and 1 mM sodium pyruvate. Compounds were spotted in empty 384 well tissue culture plates (Greiner 781182) by Echo for a final concentration of 0.0017-100 μM. Cells were plated into the TC plates at 40 μL per well, 2×10E6 cells/mL. For activation with STING ligand, 2′3′cGAMP (MW 718.38, obtained from Invivogen), was prepared in Optimem media.
The following solutions were prepared for each 1×384 plate: • Solution A: 2 mL Optimem with one of the following stimuli: • 60 μL of 10 mM 2′3′cGAMP→150 μM stock • Solution B: 2 mL Optimem with 60 μL Lipofectamine 2000→Incubate 5 min at RT
2 mL of solution A and 2 ml Solution B was mixed and incubated for 20 min at room temperature (RT). 20 μL of transfection solution (A+B) was added on top of the plated cells, with a final 2′3′cGAMP concentration of 15 μM. The plates were then centrifuged immediately at 340 g for 1 minute, after which they were incubated at 37° C., 5% CO2,>98% humidity for 24 h. Luciferase reporter activity was then measured. EC50 values were calculated by using standard methods known in the art.
Luciferase reporter assay: 10 μL of supernatant from the assay was transferred to white 384-plate with flat bottom and squared wells. One pouch of QUANTI-Luc™ Plus was dissolved in 25 mL of water. 100 μL of QLC Stabilizer per 25 mL of QUANTI-Luc™ Plus solution was added. 50 μL of QUANTI-Luc™ Plus/QLC solution per well was then added. Luminescence was measured on a Platereader (e.g., Spectramax I3X (Molecular Devices GF3637001)).
Luciferase reporter activity was then measured. EC50 values were calculated by using standard methods known in the art.

Row | EC50 | Compound
1 | 40 to 200 nM | COCCC1CCN(c2ncc(C(=O)Nc3c[nH]c4cc(F)c(F)cc34)cc2Cl)CC1 [Compound 163, 5-chloro-N-(5,6-difluoro-1H-indol-3-yl)-6-(4-(2-methoxyethyl)piperidin-1-yl)nicotinamide]
2 | 1000 to 5000 nM | O=C(Nc1c[nH]c2cc(F)c(F)cc12)c1ccnc(NCCCC(F)(F)F)n1 [Compound 164, N-(5,6-difluoro-1H-indol-3-yl)-2-((4,4,4-trifluorobutyl)amino)pyrimidine-4-carboxamide]
3 | 200 to 1000 nM | O=C(Nc1c[nH]c2cc(F)c(F)cc12)c1ccc(C2CCC(F)(F)CC2)c(Cl)c1 [Compound 166, 3-chloro-N-(5,6-difluoro-1H-indol-3-yl)-4-(4,4-difluorocyclohexyl)benzamide]
4 | 200 to 1000 nM | O=C(Nc1c[nH]c2cc(F)c(F)cc12)c1ccc(OC2CCCC2)cc1 [Compound 168, 4-(cyclopentyloxy)-N-(5,6-difluoro-1H-indol-3-yl)benzamide]
5 | 200 to 1000 nM | O=C(Nc1c[nH]c2cc(F)c(F)cc12)c1cccc(NCCCC(F)(F)F)c1 [Compound 169, N-(5,6-difluoro-1H-indol-3-yl)-3-((4,4,4-trifluorobutyl)amino)benzamide]
6 | 1000 to 5000 nM | Cc1nc(C(=O)Nc2c[nH]c3cc(F)c(F)cc23)cnc1OCC(F)(F)F [Compound 173, N-(5,6-difluoro-1H-indol-3-yl)-6-methyl-5-(2,2,2-trifluoroethoxy)pyrazine-2-carboxamide]
7 | 200 to 1000 nM | O=C(Nc1c[nH]c2cc(F)c(F)cc12)c1ccc(OCC(F)F)cc1 [Compound 174, N-(5,6-difluoro-1H-indol-3-yl)-4-(2,2-difluoroethoxy)benzamide]
8 | 5000 to 100000 nM | Cc1cc(C(=O)Nc2c[nH]c3cc(F)c(F)cc23)cc(N2CCC(F)(F)CC2)n1 [Compound 175, N-(5,6-difluoro-1H-indol-3-yl)-2-(4,4-difluoropiperidin-1-yl)-6-methylisonicotinamide]
9 | 200 to 1000 nM | O=C(Nc1c[nH]c2cc(F)c(F)cc12)c1ccc(CCC(F)(F)F)c(F)c1 [Compound 176, N-(5,6-difluoro-1H-indol-3-yl)-3-fluoro-4-(3,3,3-trifluoropropyl)benzamide]
10 | 200 to 1000 nM | O=C(Nc1c[nH]c2cc(F)c(F)cc12)c1cccc(OC2CCCCC2)c1 [Compound 179, 3-(cyclohexyloxy)-N-(5,6-difluoro-1H-indol-3-yl)benzamide]
11 | 200 to 1000 nM | O=C(Nc1c[nH]c2cc(F)c(F)cc12)c1ccc(CN2CC(F)(F)C2)c(F)c1 [Compound 181, N-(5,6-difluoro-1H-indol-3-yl)-4-((3,3-difluoroazetidin-1-yl)methyl)-3-fluorobenzamide]
12 | 40 to 200 nM | O=C(Nc1c[nH]c2cc(F)c(F)cc12)c1cnc(N2CCC(OC(F)(F)F)CC2)cn1 [Compound 182, N-(5,6-difluoro-1H-indol-3-yl)-5-(4-(trifluoromethoxy)piperidin-1-yl)pyrazine-2-carboxamide]
13 | 1000 to 5000 nM | COC1(C)CN(c2ncc(C(=O)Nc3c[nH]c4cc(F)c(F)cc34)cc2C)C1 [Compound 183, N-(5,6-difluoro-1H-indol-3-yl)-6-(3-methoxy-3-methylazetidin-1-yl)-5-methylnicotinamide]
14 | 1000 to 5000 nM | COCCO[C@@H]1CCN(c2ncc(C(=O)Nc3c[nH]c4cc(F)c(F)cc34)cc2C)C1 [Compound 184, (R)-N-(5,6-difluoro-1H-indol-3-yl)-6-(3-(2-methoxyethoxy)pyrrolidin-1-yl)-5-methylnicotinamide]
15 | 200 to 1000 nM | COCCO[C@@H]1CCN(c2ccc(C(=O)Nc3c[nH]c4cc(F)c(F)cc34)cc2F)C1 [Compound 185, (R)-N-(5,6-difluoro-1H-indol-3-yl)-3-fluoro-4-(3-(2-methoxyethoxy)pyrrolidin-1-yl)benzamide]
16 | 1000 to 5000 nM | Cc1cc(C(=O)Nc2c[nH]c3cc(F)c(F)cc23)cc(C2CCCCC2)n1 [Compound 186, 2-cyclohexyl-N-(5,6-difluoro-1H-indol-3-yl)-6-methylisonicotinamide]
17 | 200 to 1000 nM | O=C(Nc1c[nH]c2cc(F)c(F)cc12)c1ccc(C2(O)CCC(F)(F)CC2)cc1 [Compound 187, 4-(4,4-difluoro-1-hydroxycyclohexyl)-N-(5,6-difluoro-1H-indol-3-yl)benzamide]
18 | 200 to 1000 nM | N#Cc1cc(C(=O)Nc2c[nH]c3cc(F)c(F)cc23)ccc1N1CCC(F)(F)CC1 [Compound 188, 3-cyano-N-(5,6-difluoro-1H-indol-3-yl)-4-(4,4-difluoropiperidin-1-yl)benzamide]
19 | 200 to 1000 nM | O=C(Nc1c[nH]c2cc(F)c(F)cc12)c1cnc(N2CCC(C(F)(F)F)C2)c(Cl)c1 (stereo not drawn) [Compound 189, 5-chloro-N-(5,6-difluoro-1H-indol-3-yl)-6-(3-(trifluoromethyl)pyrrolidin-1-yl)nicotinamide]
20 | 200 to 1000 nM | O=C(Nc1c[nH]c2cc(F)ccc12)c1cnc(N2CCC(F)(F)CC2)c(Cl)c1 [Compound 190, 5-chloro-6-(4,4-difluoropiperidin-1-yl)-N-(6-fluoro-1H-indol-3-yl)nicotinamide]
21 | 200 to 1000 nM | Cc1cc(C(=O)Nc2c[nH]c3cc(F)c(F)cc23)cnc1NCCCC(F)(F)F [Compound 191, N-(5,6-difluoro-1H-indol-3-yl)-5-methyl-6-((4,4,4-trifluorobutyl)amino)nicotinamide]
22 | 1000 to 5000 nM | O=C(Nc1c[nH]c2cc(F)c(F)cc12)c1ccn(Cc2ccc(C(F)(F)F)cc2)c(=O)n1 [Compound 193, N-(5,6-difluoro-1H-indol-3-yl)-2-oxo-1-[[4-(trifluoromethyl)phenyl]methyl]pyrimidine-4-carboxamide]
23 | 200 to 1000 nM | COCCOc1cccc(C(=O)Nc2c[nH]c3cc(F)c(F)cc23)c1 [Compound 194, N-(5,6-difluoro-1H-indol-3-yl)-3-(2-methoxyethoxy)benzamide]
24 | 200 to 1000 nM | O=C(Nc1c[nH]c2cc(F)c(F)cc12)c1ccc(OCC2CC2)c(Cl)c1 [Compound 195, 3-chloro-4-(cyclopropylmethoxy)-N-(5,6-difluoro-1H-indol-3-yl)benzamide]
25 | 200 to 1000 nM | O=C(Nc1c[nH]c2cc(F)c(F)cc12)c1ccc(OC2CCCCC2)cc1 [Compound 196, 4-(cyclohexyloxy)-N-(5,6-difluoro-1H-indol-3-yl)benzamide]
26 | 200 to 1000 nM | O=C(Nc1c[nH]c2cc(F)c(F)cc12)c1ccc(OC(F)(F)F)nc1 [Compound 197, N-(5,6-difluoro-1H-indol-3-yl)-6-(trifluoromethoxy)pyridine-3-carboxamide]
27 | 200 to 1000 nM | CCOc1c(F)ccc(C(=O)Nc2c[nH]c3cc(F)c(F)cc23)c1F [Compound 198, N-(5,6-difluoro-1H-indol-3-yl)-3-ethoxy-2,4-difluorobenzamide]
28 | 200 to 1000 nM | CCOc1cc(F)c(C(=O)Nc2c[nH]c3cc(F)c(F)cc23)c(F)c1 [Compound 199, N-(5,6-difluoro-1H-indol-3-yl)-4-ethoxy-2,6-difluorobenzamide]

Row | Compound | EC50
29 | COCc1ccc(-n2cc(-c3ccc4[nH]cc(NC(=O)c5ccc(OCCCC(F)(F)F)cc5)c4c3)cn2)cc1 [Compound 162, N-(5-(1-(4-(methoxymethyl)phenyl)-1H-pyrazol-4-yl)-1H-indol-3-yl)-4-(4,4,4-trifluorobutoxy)benzamide] | 40 to 200 nM
30 | Cc1cc(C(=O)Nc2c[nH]c3cc(F)c(F)cc23)ccc1OC1CC(F)(F)C1 [Compound 165, N-(5,6-difluoro-1H-indol-3-yl)-4-(3,3-difluorocyclobutoxy)-3-methylbenzamide] | 40 to 200 nM
31 | O=C(Nc1c[nH]c2cc(F)c(F)cc12)c1ccc(Cl)c(OCCCC(F)(F)F)c1 [Compound 170, 4-chloro-N-(5,6-difluoro-1H-indol-3-yl)-3-(4,4,4-trifluorobutoxy)benzamide] | 200 to 1000 nM
32 | O=C(Nc1c[nH]c2cc(F)c(F)cc12)c1cccc(OCCCC(F)(F)F)c1 [Compound 171, N-(5,6-difluoro-1H-indol-3-yl)-3-(4,4,4-trifluorobutoxy)benzamide] | 200 to 1000 nM
33 | Cc1ccc(C(=O)Nc2c[nH]c3cc(F)c(F)cc23)cc1OCCCC(F)(F)F [Compound 172, N-(5,6-difluoro-1H-indol-3-yl)-4-methyl-3-(4,4,4-trifluorobutoxy)benzamide] | 200 to 1000 nM
34 | CC(C)n1cc(-c2ccc3[nH]cc(NC(=O)c4ccc(OCCCC(F)(F)F)cc4)c3c2)cn1 [Compound 180, N-(5-(1-isopropyl-1H-pyrazol-4-yl)-1H-indol-3-yl)-4-(4,4,4-trifluorobutoxy)benzamide] | 200 to 1000 nM
35 | O=C(Nc1c[nH]c2cc(F)ccc12)c1ccc(OCCCC(F)(F)F)c(F)c1 [Compound 192, 3-fluoro-N-(6-fluoro-1H-indol-3-yl)-4-(4,4,4-trifluorobutoxy)benzamide] | 200 to 1000 nM
36 | COCc1cccc(-n2cc(-c3ccc4[nH]cc(NC(=O)c5ccc(OCCCC(F)(F)F)cc5)c4c3)cn2)c1 [Compound 200, N-(5-(1-(3-(methoxymethyl)phenyl)-1H-pyrazol-4-yl)-1H-indol-3-yl)-4-(4,4,4-trifluorobutoxy)benzamide] | 200 to 1000 nM
